# Results taken from PMC12549532, “The complete λ-carrageenan depolymerization cascade from a marine Pseudoalteromonad revealed by structural analysis of the enzymes” (The Journal of Biological Chemistry, 2025).
# Residue numbers refer to the chain shown, from its start.
# Experiments:
# GH110A [1] = target: T1, GH110A (Pseudoalteromonas distincta, UniProt Z9OJ40UL04); experiment: X-ray crystal structure, soaked; assay type: binding; details: -1 subsite
# T1 construct: without predicted signal peptide; pET28a N-terminal His-tag, cut with thrombin for crystals; E. coli host
# T1 sequence (Z9OJ40UL04 24-600): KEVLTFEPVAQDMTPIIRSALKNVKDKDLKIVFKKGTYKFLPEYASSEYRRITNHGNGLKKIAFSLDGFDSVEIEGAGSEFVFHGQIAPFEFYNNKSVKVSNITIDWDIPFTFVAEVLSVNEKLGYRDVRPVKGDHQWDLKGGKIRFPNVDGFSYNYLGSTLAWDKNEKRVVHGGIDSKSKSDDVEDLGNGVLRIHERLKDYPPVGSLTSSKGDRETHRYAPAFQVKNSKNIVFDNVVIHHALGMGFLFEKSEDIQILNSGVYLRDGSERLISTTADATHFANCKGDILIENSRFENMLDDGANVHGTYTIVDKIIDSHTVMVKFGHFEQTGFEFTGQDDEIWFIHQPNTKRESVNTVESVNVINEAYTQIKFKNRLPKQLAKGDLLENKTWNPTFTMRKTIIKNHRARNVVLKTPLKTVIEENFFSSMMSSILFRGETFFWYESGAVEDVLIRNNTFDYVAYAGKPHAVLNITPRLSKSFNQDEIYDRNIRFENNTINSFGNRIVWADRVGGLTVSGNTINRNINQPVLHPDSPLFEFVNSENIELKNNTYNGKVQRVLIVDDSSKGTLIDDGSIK
# GH2 [2] = target: T2, GH2 (Pseudoalteromonas distincta, UniProt Z9L5V2N5Y9); experiment: X-ray crystal structure, soaked; assay type: binding; parameters: without predicted signal peptide; pET28a N-terminal His-tag, cut with thrombin for crystals; E. coli Tuner (DE3); details: inhibitor in -1 subsite, capping loop closed
# T2 sequence (Z9L5V2N5Y9 24-826): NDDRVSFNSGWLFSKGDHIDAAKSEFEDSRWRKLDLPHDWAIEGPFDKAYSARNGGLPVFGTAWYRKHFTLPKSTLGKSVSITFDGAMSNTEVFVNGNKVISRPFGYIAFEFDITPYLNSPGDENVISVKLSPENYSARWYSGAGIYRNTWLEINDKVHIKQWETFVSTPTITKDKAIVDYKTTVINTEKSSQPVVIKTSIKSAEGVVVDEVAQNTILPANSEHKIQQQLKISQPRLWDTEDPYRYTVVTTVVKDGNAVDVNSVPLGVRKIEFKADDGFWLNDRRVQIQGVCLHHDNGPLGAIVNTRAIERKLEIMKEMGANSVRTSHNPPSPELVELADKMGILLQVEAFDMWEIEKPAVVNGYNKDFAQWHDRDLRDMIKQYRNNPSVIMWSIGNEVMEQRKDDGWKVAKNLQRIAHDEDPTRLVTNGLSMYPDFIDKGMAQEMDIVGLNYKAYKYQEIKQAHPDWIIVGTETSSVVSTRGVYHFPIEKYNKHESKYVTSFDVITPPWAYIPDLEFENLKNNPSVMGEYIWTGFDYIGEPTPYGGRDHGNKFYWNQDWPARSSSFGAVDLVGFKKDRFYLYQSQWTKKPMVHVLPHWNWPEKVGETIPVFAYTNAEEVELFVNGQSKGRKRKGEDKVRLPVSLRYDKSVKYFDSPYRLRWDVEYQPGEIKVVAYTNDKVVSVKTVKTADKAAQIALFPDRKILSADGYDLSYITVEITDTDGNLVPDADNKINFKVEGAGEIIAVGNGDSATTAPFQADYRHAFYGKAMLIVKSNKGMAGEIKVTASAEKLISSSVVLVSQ
# GH2 [3] = target: T2, GH2; experiment: chromogenic activity assay (data not shown)
# GH110A [4] = target: T3, GH110A (Pseudoalteromonas distincta, UniProt Z9OJ40UL04, D324N, form not given); experiment: X-ray crystal structure, soaked; assay type: binding; details: inactive mutant; trisaccharide G6S in -1 subsite modelled, partial occupancy in +1 and +2
# T3 construct: without predicted signal peptide; pET28a N-terminal His-tag, cut with thrombin for crystals; E. coli host
# T3 sequence (Z9OJ40UL04 24-600 D324N): T1 sequence (Z9OJ40UL04 24-600) with D301N
# S1_8B [5] = target: T4, S1_8B (Pseudoalteromonas distincta, UniProt Z9FD83UQX5, S94C, form not given); experiment: preparative desulfation, product seen in crystal complexes; assay type: biochemical; details: 2-O-desulfation of the non-reducing end
# T4 construct: without predicted signal peptide; pET28a N-terminal His-tag, cut with thrombin for crystals; E. coli BL21 (DE3) Star
# T4 sequence (Z9FD83UQX5 24-541 S94C): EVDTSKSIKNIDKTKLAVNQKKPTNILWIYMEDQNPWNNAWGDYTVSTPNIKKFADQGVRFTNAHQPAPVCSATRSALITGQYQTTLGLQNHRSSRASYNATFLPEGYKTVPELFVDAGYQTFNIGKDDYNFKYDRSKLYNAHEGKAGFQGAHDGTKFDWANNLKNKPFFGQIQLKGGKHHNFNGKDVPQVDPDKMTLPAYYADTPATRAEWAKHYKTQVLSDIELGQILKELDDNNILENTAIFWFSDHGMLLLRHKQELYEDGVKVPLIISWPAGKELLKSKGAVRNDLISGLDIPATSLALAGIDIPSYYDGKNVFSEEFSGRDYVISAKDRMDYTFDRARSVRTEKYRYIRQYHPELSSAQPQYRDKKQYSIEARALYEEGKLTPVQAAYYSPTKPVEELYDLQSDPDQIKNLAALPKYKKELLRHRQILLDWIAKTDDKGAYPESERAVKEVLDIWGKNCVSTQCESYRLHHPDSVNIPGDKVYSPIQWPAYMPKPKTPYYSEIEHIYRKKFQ
# S1_8B [6] = target: T5, S1_8B (Pseudoalteromonas distincta, UniProt Z9FD83UQX5); experiment: X-ray crystal structure, soaked; assay type: binding; details: inactive mutant (printed C84S); 2.1 Å; modelled as fully sulfated Hex4S6
# T5 construct: without predicted signal peptide; pET28a N-terminal His-tag, cut with thrombin for crystals; E. coli BL21 (DE3) Star
# T5 sequence (Z9FD83UQX5 24-541): T4 sequence (Z9FD83UQX5 24-541 S94C) with C71S
smiles,measurement,setting,value
O=S(=O)(O)OC[C@H]1OC(O)[C@H](O)[C@@H](O)[C@H]1O (stereo partly drawn) [G6S],"X-ray crystal structure, soaked",GH110A [1],We determined the structure of GH110A in complex with the monosaccharide G6S
"OC[C@H]1CNC[C@@H](O)[C@H]1O [GIF, galactoisofagomine]","X-ray crystal structure, soaked",GH2 [2],The structure of GH2 in complex with the inhibitor galactoisofagomine (GIF)
"O=[N+]([O-])c1ccc(O[C@@H]2O[C@H](CO)[C@H](O)[C@H](O)[C@H]2O)cc1 [pNP-β-Gal, pNP-β-D-galactopyranoside]",chromogenic activity assay (data not shown),GH2 [3],GH2 was active on pNP-β-D-galactopyranoside (pNP-β-Gal; not shown)
O=S(=O)(O)OC[C@H]1O[C@H](O[C@H]2[C@@H](O)[C@@H](CO)O[C@@H](O[C@@H]3[C@H](O)[C@@H](OS(=O)(=O)O)[C@@H](O[C@H]4[C@@H](O)[C@@H](CO)OC(O)[C@@H]4OS(=O)(=O)O)O[C@@H]3COS(=O)(=O)O)[C@@H]2OS(=O)(=O)O)[C@H](O)[C@@H](O)[C@H]1O (stereo partly drawn) [λ-NC4 pre-treated with S1_8B],"X-ray crystal structure, soaked",GH110A [4],determining its structure in complex with λ−NC4 that was pre-treated with S1_8B
"O=S(=O)(O)OC[C@H]1O[C@H](O[C@H]2[C@@H](O)[C@@H](CO)O[C@@H](O[C@@H]3[C@H](O)[C@@H](OS(=O)(=O)O)[C@@H](O[C@H]4[C@@H](O)[C@@H](CO)OC(O)[C@@H]4OS(=O)(=O)O)O[C@@H]3COS(=O)(=O)O)[C@@H]2OS(=O)(=O)O)[C@H](OS(=O)(=O)O)[C@@H](O)[C@H]1O (stereo partly drawn) [λ-NC4, λ-neocarratetraose]","preparative desulfation, product seen in crystal complexes",S1_8B [5],pretreated with S1_8B to convert the non-reducing end residue to G6S
same,"X-ray crystal structure, soaked",S1_8B [6],"We were able to model both tetrasaccharides as fully sulfated λ−NC4 (i.e., Hex4S6)"
